Laboratory results taken from PMC7247319, “The mitochondria-targeted peptide SS-31 binds lipid bilayers and modulates surface electrostatics as a key component of its mechanism of action” (The Journal of Biological Chemistry, 2020).
Where a SMILES comes first, the peptide text is derived from it. [ ]: non-standard residue; d: D form. Dmt = Cc1cc(O)cc(C)c1C[C@H](N)C(=O)O

Tested on: isolated mitochondria
Assay: Respirometry (oxygen consumption) of mitochondria under calcium stress
Set-up: species or system S. cerevisiae
Details: mitochondria 1 mg ml^−1, SS-31 54.4 μM, CaCl2 1 mM, preincubated on ice 20 min; n = 10–12
Protocol: Figure 7. SS peptide effects on Ca^2+-membrane interactions and mitochondrial cation stress. A, profiles of surface potential decay (top) and ion distribution (bottom) based on GCS theory in the presence or absence of SS-31 (see supporting Results H for model description). B, effect of SS peptides on Ca^2+ accumulation at model membrane interfaces. Time course measurements of CG-5N emission were performed in solutions with LUVs (20 mol % TOCL in host POPC background, [lipid]^eff = 100 μM) prebound with SS peptide at the indicated concentration followed by titration of CaCl2 in increments of 1 nmol at 20-s intervals starting at t = 60 s. C and D, effect of SS peptides on mitochondrial Ca^2+ uptake. […] Spectral deconvolution yielded the indicated components (see Fig. S19, A and B), which were used to quantify the area ratios of L2/iso in F (values shown are means ± S.D. (error bars) (n = 3). G, respirometry analysis. Mitochondria (1 mg ml^−1) were treated in the absence or presence of SS-31 (54.4 μM) or CaCl2 (1 mM) as indicated and measured for state 2 respiration (n = 10–12 each).
Finally, we measured the effects of SS peptides on mitochondrial calcium stress that may occur independently of Ca^2+ uptake into the matrix. […] To corroborate these findings, we measured mitochondrial oxygen consumption rates under similar conditions of SS peptide treatment and calcium stress. […]

Cc1cc(O)cc(C)c1C[C@H](NC(=O)[C@H](N)CCCNC(=N)N)C(=O)N[C@@H](CCCCN)C(=O)N[C@@H](Cc1ccccc1)C(N)=O [SS-31, D-Arg-2′6′-dimethyl-Tyr-Lys-Phe-NH2] (H-[dR][Dmt]KF-NH2)
effect on calcium-induced increase in basal (state 2) respiration: prevented
